PMC12524297 (International Journal of Molecular Sciences, 2025)
Where two headings read alike, the source gives them in different places.

How the values were obtained:
[1] = In vitro assays confirming flagged compound (no details given)
From the text: 5.Implementation and Reproducibility
5.1 Real-World Deployment in Chemical Safety Assessment
HazChemNet has been integrated into a cloud-based decision support system for chemical safety evaluation, enabling real-time toxicity prediction for industrial and regulatory use. Key applications include:
Industrial Chemical Screening:
A pharmaceutical company utilized HazChemNet to prioritize 1,200 candidate compounds for drug development. The model identified 18% as high-risk (toxic), reducing experimental testing costs by 35%.
Environmental Regulation Compliance:
A regulatory agency deployed the model to screen 5,000 industrial chemicals under the EU REACH framework.
HazChemNet achieved 89% concordance with expert evaluations, accelerating risk assessment workflows.
5.2 Case Study: Identification of Emerging Contaminants
We applied HazChemNet to predict the toxicity of per- and polyfluoroalkyl substances (PFAS), a class of persistent environmental pollutants. The model identified 22 out of 30 PFAS compounds as hazardous, including:
PFOS (Perfluorooctanesulfonic acid): Predicted probability = 0.93 (high risk).
GenX (Hexafluoropropylene oxide dimer acid): Predicted probability = 0.87 (moderate risk).
Validation: Experimental LC50 data from zebrafish assays confirmed the predictions with a Spearman correlation of ρ […]
5.3 Integration with Laboratory Information Systems […]

[2] = system: Caenorhabditis elegans (C. elegans, N2 strain)

Molecule	mortality ([2]; in vivo)	further results
O=C1C=CC(=O)C(Cl)=C1 [CID_123456]		confirmation of hazard flag by in vitro assays [1]: confirmed by in vitro assays
O=C(O)CC(O)(CC(=O)O)C(=O)O [Citric Acid]	no significant mortality	
OCC(O)CO [Glycerol]	no significant mortality	
CC(=O)[O-].CC(=O)[O-].[Pb+2] [Lead Acetate]		LD50 ([2]; L4-stage worms, 24 h at 20 °C, K-M buffer, Probit analysis): 0.464 to 1 mg/mL
Ethyl Alcohol		LD50 ([2]; in vivo): 46.4 to 100 mg/mL
Gibberellin	no significant mortality	
